Laboratory results as given in patent US5591743A, “3,5-dioxo-(2H,4H)-1,2,4-triazine derivatives as 5HT1A ligands” (Pierre Fabre Medicament, priority 1993, dated 1997).
Read-outs that look alike come from different tables or passages of the source.

Experiments:
[1] = biological target: T1, 5-HT1A receptor (Rattus norvegicus, UniProt P19327); assay: Affinity for the receptor 5-HT1A: displacement of [3H]8-OH-DPAT in rat cerebral cortex; assay type: binding; details: [3H]8-OH-DPAT 0.2 nM, 23° C., 30 minutes, average of 3 to 5 experiments, read-out: pKi (affinity for the receptor 5-HT1A) (converted)
T1 construct: The brain is dissected and the cortex is homogenized in 20 volumes of Tris-HCl buffer; from tissue; host or cells: rat cerebral cortex homogenate
T1 sequence (P19327 1-422): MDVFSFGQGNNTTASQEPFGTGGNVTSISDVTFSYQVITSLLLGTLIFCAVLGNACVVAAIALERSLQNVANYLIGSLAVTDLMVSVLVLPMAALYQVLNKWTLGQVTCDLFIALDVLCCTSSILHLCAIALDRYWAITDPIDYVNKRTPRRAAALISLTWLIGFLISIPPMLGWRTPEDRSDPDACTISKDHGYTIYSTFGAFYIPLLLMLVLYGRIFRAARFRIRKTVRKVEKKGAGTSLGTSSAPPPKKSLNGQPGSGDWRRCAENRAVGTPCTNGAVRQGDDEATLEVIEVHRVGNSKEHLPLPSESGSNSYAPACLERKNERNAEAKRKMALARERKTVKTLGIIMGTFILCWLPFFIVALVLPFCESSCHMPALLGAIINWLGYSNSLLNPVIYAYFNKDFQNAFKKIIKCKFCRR
Experimental: Thus, they were the object of a study relating to their affinity for serotoninergic receptors such as 5-HT1A.
The study of the bonding to the receptor 5-HT1A is carried out in the manner described by Sleight and Peroutka (Naunyn-Schmiedebergs Arch. Pharmacol. 343:106-116, 1991). For these experiments, rat cerebral cortices are used. The brain is dissected and the cortex is homogenized in 20 volumes of Tris-HCl buffer (50 mM, pH 7.4 at 25° C.) kept at 4° C. The homogenate is centrifuged at 39000 g for 10 minutes, the final product is suspended in the same volume of buffer and centrifuged again. After being again placed in suspension under the same conditions, the homogenate is incubated for 10 minutes at 37° C. and then centrifuged again. The final product is suspended in 80 volumes of reaction buffer containing pargyline (10^- 5M), CaCl2 (4 mM) and ascorbic acid (0.1%) in Tris-HCl (50 mM, pH 7.4 at 25° C.). The final concentration of tissue in the incubation medium is 10 mg/tube.
In the saturation experiments, the reaction tubes contain 0.1 ml of different concentrations of [^3 H]8--OH--DPAT (between 0.06 and 8 nM), 0.1 ml of reaction buffer 5-HT (10^-5 M, in order to determine the non-specific bond) and 0.8 ml of tissue.
The displacement experiments are carried out in the manner described by Sleight and Peroutka (Naunyn-Schmiedebergs Arch. Pharmacol. 343:106-116, 1991). All the dilutions of products to be studied are prepared in the reaction buffer. The reaction tubes contain 0.1 ml of [^3 H]8-OH-DPAT (0.2 nM), 0.1 ml of product to be tested 6-7 concentrations (successive dilutions to 1/10) and 0.8 ml of tissue. […] The radioactivity collected on the filter is analyzed in liquid scintillation by adding 4 ml of scintillating liquid (Emulsifier Safe, Packard). All the experiments are carried out in triplicate and repeated at least 3 times.
The dissociation constant (KD) and the maximum number of bond sites (Bmax) for the radioligand are estimated on the basis of the saturation experiments using the non-linear regression program EBDA/LIGAND (Biosoft) (Munson and Rodbard: Anal. Biochem. 107:220-239, 1980). The affinity constants (Ki) of the reference products are estimated on the basis of the displacement experiments using the EBDA/LIGAND non-linear regression program. […] The data of the displacement experiments are analyzed with the one-site and two-site models respectively and the calculated F makes it possible to determine whether the two-site model is more representative of the data obtained than the one-site model. The values of pKi are given in the form of the average ±SEM of 3 to 5 experiments.

[2] = biological target: T2, serotoninergic receptors of type 5-HT1A (Rattus norvegicus, UniProt P19327); assay: 5-HT syndrome (flat body posture, lower-lip retraction, fore-paw treading); assay type: in vivo; details: ip, male Sprague-Dawley rat, i.p.
T2 construct: carried out on the male rat (Sprague-Dawley); from tissue; host or cells: whole living male Sprague-Dawley rat (in vivo test)
T2 sequence (P19327 1-422): T1 sequence (P19327 1-422)
Experimental: The experiments of the evaluation of the 5-HT syndrome are carried out on the male rat (Sprague-Dawley) by the method described by F. C. Colpaert et al. (Drug. Dev. Res. 26:21-48, 1992).

[3] = FBP, read-out: ED50 FBP (flat body posture)
[4] = FPT, read-out: ED50 FPT (reciprocal fore-paw treading)
[5] = LLR, read-out: ED50 LLR (lower-lip retraction)

Row | Ki [1] [nM] | ED50 [2, 3] [mg/kg] | ED50 [2, 4] [mg/kg] | ED50 [2, 5] [mg/kg] | Compound
1 | 16.2 |  |  |  | Cn1nc(NCCCN2CCN(c3cccc(C(F)(F)F)c3)CC2)c(=O)n(C)c1=O [Compound 6, 2,4-dimethyl-3,5-dioxo-(2H,4H)-6-(3-(4-(3-trifluoromethylphenyl)piperazino)propylamino)-1,2,4-triazine]
2 | 0.398 | 0.31 | 40 | 0.31 | Cn1nc(NCCCCN2CCN(c3cccc(Cl)c3)CC2)c(=O)n(C)c1=O [Compound 2, 2,4-dimethyl-3,5-dioxo-(2H,4H)-6-(4(4-(3-chlorophenyl)piperazino)butylamino)-1,2,4-triazine]
3 | 0.316 | 0.31 | 0.31 | 0.31 | Cn1nc(NCCCCN2CCN(c3cccc(C(F)(F)F)c3)CC2)c(=O)n(C)c1=O [Compound 1, 2,4-dimethyl-3,5-dioxo-(2H, 4H)-6-(4-(4-(3-trifluoromethylphenyl)piperazino)butylamino)-1,2,4-triazine]
4 | 0.617 |  |  |  | COc1ccccc1N1CCN(CCCCNc2nn(C)c(=O)n(C)c2=O)CC1 [Compound 3, 2,4-dimethyl-3,5-dioxo-(2H,4H)-6-(4-(4-(2-methoxyphenyl)piperazino)butylamino)-1,2,4-triazine]

The next lines start with the compound.

Row | Compound | Ki [1] [nM] | ED50 [2, 3] [mg/kg] | ED50 [2, 4] [mg/kg] | ED50 [2, 5] [mg/kg]
5 | CCCCn1c(=O)[nH]nc(NCCCCN2CCN(c3cccc(C(F)(F)F)c3)CC2)c1=O [Compound 11, 4-butyl-3,5-dioxo-(2H, 4H)-6-(4-(4-(3-trifluoromethylphenyl)piperazino)butylamino)-1,2,4-triazine] | 12.6 |  |  | 
6 | Cn1nc(NCCCCNCC2COc3ccccc3O2)c(=O)n(C)c1=O (stereo not shown) [Compound 9, 2,4-dimethyl-3,5-dioxo-(2H,4H)-6-(4-(1,4-benzodioxan-2 ylmethylamino)butylamino)-1,2,4-triazine] | 2.69 |  |  | 
7 | Cn1nc(NCCCNCC2COc3ccccc3O2)c(=O)n(C)c1=O (stereo not shown) [Compound 10, 2,4-dimethyl-3,5-dioxo-(2H, 4H)-6-(3-(1,4-benzodioxan-2 ylmethylamino)propylamino)-1,2,4-triazine] | 3.8 |  |  | 
8 | O=C1CC2(CCCC2)CC(=O)N1CCCCN1CCN(c2ncccn2)CC1 [Buspirone, reference compound] |  | 5 | > 40 | 1.25
